Starred links: 1 amine or outer side, 2 acyl side, 3 side chain; linkers in the order of their positions; H or OH if unused. Positions of bridges follow the written chain, without caps; N, C: chain ends. Non-standard residues stand in square brackets, D forms with d. Residues, ends and D or L forms follow the SMILES beside them. *: point of attachment. hPhe(3-Cl-4-CF3) = N[C@@H](CCc1ccc(C(F)(F)F)c(Cl)c1)C(=O)O; NMePhe(4-CF3) = CN[C@@H](Cc1ccc(C(F)(F)F)cc1)C(=O)O; hPhe(4-CF3) = N[C@@H](CCc1ccc(C(F)(F)F)cc1)C(=O)O; NMePhe(3-Cl) = CN[C@@H](Cc1cccc(Cl)c1)C(=O)O; NMePhe(4-Cl) = CN[C@@H](Cc1ccc(Cl)cc1)C(=O)O; NMePhe(4-Me) = CN[C@@H](Cc1ccc(C)cc1)C(=O)O; NMedβ3hAla = C[C@H](CC(=O)[*:2])N(C)[*:1]; NMePhe(2-F) = CN[C@@H](Cc1ccccc1F)C(=O)O; NMeGly(cPent) = CN[C@H](C(=O)O)C1CCCC1; Pro(4,4-F2) = O=C(O)[C@@H]1CC(F)(F)CN1; NMe3Pal = CN[C@@H](Cc1cccnc1)C(=O)O; NMeCha = CN[C@@H](CC1CCCCC1)C(=O)O; Azetidine(3,3-F2) = FC1(F)CN(*)C1; NMeCba = CN[C@@H](CC1CCC1)C(=O)O; NMeChg = CN[C@H](C(=O)O)C1CCCCC1; NMeF = CN[C@@H](Cc1ccccc1)C(=O)O; NMeI = CC[C@H](C)[C@H](NC)C(=O)O; NMeD = CN[C@@H](CC(=O)O)C(=O)O; CH2CONHtBu = CC(C)(C)NC(=O)C*; NMeL = CN[C@@H](CC(C)C)C(=O)O; NMeV = CN[C@H](C(=O)O)C(C)C; d(β3hA) = C[C@@H](N)CC(=O)O; NMeA = CN[C@@H](C)C(=O)O; NMeAib = CNC(C)(C)C(=O)O; Piperidide = C1CCN(*)CC1; Pyrrolidide = C1CCN(*)C1; dNMeA = CN[C@H](C)C(=O)O; Ac5c = NC1(C(=O)O)CCCC1; Aze = O=C(O)[C@@H]1CCN1; Ac4c = NC1(C(=O)O)CCC1; Sar = CNCC(=O)O; Propyl = CCC*
Molecular target: T1, Kras and SOS1 (biotin-tagged human Kras loaded with GDP, His-tagged human SOS1) (Homo sapiens, UniProt P01116, G12D)
T1 construct: made in house; host or cells: E. coli (stated for Kras only)
T1 sequence (P01116 1-188 isoform P01116-2 G12D): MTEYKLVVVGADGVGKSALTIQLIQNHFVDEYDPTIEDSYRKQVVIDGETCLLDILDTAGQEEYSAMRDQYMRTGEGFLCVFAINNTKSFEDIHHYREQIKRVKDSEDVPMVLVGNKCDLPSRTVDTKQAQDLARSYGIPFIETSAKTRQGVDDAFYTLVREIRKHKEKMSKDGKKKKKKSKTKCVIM
Experiment: Protein-protein interaction inhibition between Kras and SOS1 (KrasGl2D-SOS PPI) using AlphaScreen
Format: binding
Conditions: AlphaScreen; biotin-tagged human Kras loaded with GDP, His-tagged human SOS1; read-out: KRAS G12D-SOS PPI IC50
Method: Protein-Protein Interaction Inhibition Between Kras and SOS1 (KrasGl2D-SOS PPI) Using AlphaScreen
Protein-protein interaction inhibition (PPI) between Kras and SOS1 was measured by energy transfer from nickel-conjugated donor beads to streptavidin-conjugated acceptor beads using biotin-tagged human Kras expressed in E. coli and loaded with GDP after purification and His-tagged human SOS1 enzyme. This measurement utilizes the phenomenon in which donor beads are irradiated with light at 680 nm, such that energy is transferred to acceptor beads through singlet oxygen and light at 520-620 nm is detected from the acceptor beads.
Inhibition of binding between K-ras and SOS1 is known to inhibit signaling downstream of Kras.

Compared with `CC[C@H](C)[C@@H]1NC(=O)[C@H](CC2CCCCC2)N(C)C(=O)C[C@@H](C)NC(=O)[C@H](C(C)C)N(C)C(=O)C2(CCCC2)NC(=O)[C@@H]2CCCN2C(=O)[C@H](CCc2ccc(C(F)(F)F)c(Cl)c2)NC(=O)CN(C)C(=O)[C@H](CC2CCCCC2)N(C)C(=O)[C@@H]2CCN2C(=O)[C@H](C)N(C)C1=O` [Compound 38] (cyclo([Ac5c][NMeV][d(β3hA)][NMeCha]I[NMeA][Aze][NMeCha][Sar][hPhe(3-Cl-4-CF3)]P)), `CC[C@H](C)[C@@H]1NC(=O)[C@H](CC(C)C)N(C)C(=O)C[C@@H](C)NC(=O)[C@H](CC2CCC2)N(C)C(=O)C2(CCCC2)NC(=O)[C@@H]2CCCN2C(=O)[C@H](CCc2ccc(C(F)(F)F)c(Cl)c2)NC(=O)CN(C)C(=O)[C@H](CC2CCCCC2)N(C)C(=O)CN(C)C(=O)CN(C)C1=O` [Compound 59] (cyclo([Ac5c][NMeCba][d(β3hA)][NMeL]I[Sar][Sar][NMeCha][Sar][hPhe(3-Cl-4-CF3)]P)) is 4.4-fold lower in IC50: 160 nM for the first, 36 nM for the second. The second is the more potent here.

Going from `CCCOC[C@@H]1NC(=O)[C@H](CC(=O)N2CC(F)(F)C2)N(C)C(=O)[C@H](CCc2ccc(C(F)(F)F)c(Cl)c2)NC(=O)CN(C)C(=O)[C@H](CC2CCCCC2)N(C)C(=O)[C@@H]2CCN2C(=O)[C@H](C)N(C)C(=O)[C@H]([C@@H](C)CC)NC(=O)[C@H](CC(C)C)N(C)C(=O)C[C@@H](C(=O)N(C)C)N(C)C(=O)[C@H](C2CCCC2)N(C)C1=O` [Compound 41] ([NMeL]I[NMeA][Aze][NMeCha][Sar][hPhe(3-Cl-4-CF3)][NMeD](Azetidine(3,3-F2))S(Propyl)[NMeGly(cPent)][NMeD]-NMe2; lactam N-11) to `CC[C@H](C)[C@@H]1NC(=O)[C@H](CC(C)C)N(C)C(=O)C[C@@H](C(=O)N(C)C)N(C)C(=O)[C@H](C2CCCC2)N(C)C(=O)C2(CCCC2)NC(=O)[C@H](Cc2ccccc2F)N(C)C(=O)[C@H](CCc2ccc(C(F)(F)F)c(Cl)c2)NC(=O)CN(C)C(=O)[C@H](CC2CCCCC2)N(C)C(=O)[C@@H]2CCN2C(=O)[C@H](C)N(C)C1=O` [Compound 43] ([NMeL]I[NMeA][Aze][NMeCha][Sar][hPhe(3-Cl-4-CF3)][NMePhe(2-F)][Ac5c][NMeGly(cPent)][NMeD]-NMe2; lactam N-11), the IC50 rises from 11 nM to 31 nM (2.8-fold). The first is the more potent here.

`CC[C@H](C)[C@@H]1NC(=O)[C@H](C)N(C)C(=O)C[C@@H](C)NC(=O)[C@H](C2CCCC2)N(C)C(=O)C2(CCCC2)NC(=O)[C@@H]2CCCN2C(=O)[C@H](CCc2ccc(C(F)(F)F)c(Cl)c2)NC(=O)[C@@H](C)N(C)C(=O)[C@H](Cc2cccc(Cl)c2)N(C)C(=O)[C@@H]2CCN2C(=O)[C@H](C)N(C)C1=O` [Compound 42] (cyclo([Ac5c][NMeGly(cPent)][d(β3hA)][NMeA]I[NMeA][Aze][NMePhe(3-Cl)][dNMeA][hPhe(3-Cl-4-CF3)]P)) and `CC[C@H](C)[C@@H]1NC(=O)[C@H](CC(C)C)N(C)C(=O)C[C@@H](C)NC(=O)[C@H](C(C)C)N(C)C(=O)C2(CCCC2)NC(=O)[C@@H]2CCCN2C(=O)[C@H](CCc2ccc(C(F)(F)F)c(Cl)c2)NC(=O)[C@H]2CCCN2C(=O)[C@H](CC2CCCCC2)N(C)C(=O)CN(C)C(=O)CN(C)C1=O` [Compound 76] (cyclo([Ac5c][NMeV][d(β3hA)][NMeL]I[Sar][Sar][NMeCha][dP][hPhe(3-Cl-4-CF3)]P)) are the same in IC50: 190 nM for the first, 190 nM for the second.

Going from `CC[C@H](C)[C@@H]1NC(=O)[C@H](C)N(C)C(=O)C[C@@H](C(=O)N2CCCC2)NC(=O)[C@H](CC(C)C)N(C)C(=O)[C@H](CC(C)C)N(C)C(=O)[C@H](CC(C)C)NC(=O)[C@H](CCc2ccc(C(F)(F)F)cc2)NC(=O)CN(C)C(=O)[C@H](Cc2ccc(Cl)cc2)N(C)C(=O)CN(C)C(=O)CN(C)C1=O` [Compound 46] ([NMeA]I[Sar][Sar][NMePhe(4-Cl)][Sar][hPhe(4-CF3)]L[NMeL][NMeL]D-Pyrrolidide; lactam N-11) to `CC[C@H](C)[C@@H]1NC(=O)[C@H](C)N(C)C(=O)C[C@@H](C(=O)N2CCCC2)NC(=O)[C@H](CC(C)C)N(C)C(=O)[C@H](Cc2ccccc2)N(C)C(=O)[C@H](CC(C)C)NC(=O)[C@H](CCc2ccc(C(F)(F)F)cc2)NC(=O)CN(C)C(=O)[C@H](Cc2ccc(Cl)cc2)N(C)C(=O)CN(C)C(=O)CN(C)C1=O` [Compound 50] ([NMeA]I[Sar][Sar][NMePhe(4-Cl)][Sar][hPhe(4-CF3)]L[NMeF][NMeL]D-Pyrrolidide; lactam N-11), the IC50 falls from 120 nM to 28 nM (4.3-fold).

`CC[C@H](C)[C@@H]1NC(=O)[C@H](C)N(C)C(=O)C[C@@H](C(=O)N2CCCC2)NC(=O)[C@H](CC(C)C)N(C)C(=O)[C@H](COCC(=O)NC(C)(C)C)NC(=O)[C@H](CC(C)C)NC(=O)[C@H](CCc2ccc(C(F)(F)F)cc2)NC(=O)CN(C)C(=O)[C@H](Cc2ccc(Cl)cc2)N(C)C(=O)CN(C)C(=O)CN(C)C1=O` [Compound 53] ([NMeA]I[Sar][Sar][NMePhe(4-Cl)][Sar][hPhe(4-CF3)]LS(CH2CONHtBu)[NMeL]D-Pyrrolidide; lactam N-11) and `CC[C@H](C)[C@@H]1NC(=O)[C@H](C)N(C)C(=O)C[C@@H](C)NC(=O)[C@H](C(C)C)N(C)C(=O)[C@H](Cc2ccccc2)N(C)C(=O)[C@H](CC(C)C)N(C)C(=O)[C@H](CCc2ccc(C(F)(F)F)cc2)NC(=O)CN(C)C(=O)[C@H](Cc2ccc(Cl)cc2)N(C)C(=O)CN(C)C(=O)[C@@H]2CCN2C1=O` [Compound 71] (cyclo([Aze][Sar][NMePhe(4-Cl)][Sar][hPhe(4-CF3)][NMeL][NMeF][NMeV][d(β3hA)][NMeA]I)) are within 1.5-fold of each other in IC50: 120 nM for the first, 150 nM for the second.

Compared with `CC[C@H](C)[C@@H]1NC(=O)[C@H](CC(C)C)N(C)C(=O)C[C@@H](C)N(C)C(=O)[C@H](CC(C)C)NC(=O)C(C)(C)N(C)C(=O)[C@H](CC(C)C)NC(=O)[C@H](CCc2ccc(C(F)(F)F)c(Cl)c2)NC(=O)CN(C)C(=O)[C@H](CC2CCCCC2)N(C)C(=O)[C@@H]2CCN2C(=O)CN(C)C1=O` [Compound 57] (cyclo([Aze][NMeCha][Sar][hPhe(3-Cl-4-CF3)]L[NMeAib]L[NMedβ3hAla][NMeL]I[Sar])), `CC[C@H](C)[C@@H]1NC(=O)[C@H](CC(C)C)N(C)C(=O)C[C@@H](C(=O)N(C)C)N(C)C(=O)[C@H]([C@@H](C)CC)N(C)C(=O)C2(CCCC2)NC(=O)[C@@H](C)NC(=O)[C@H](CCc2ccc(C(F)(F)F)c(Cl)c2)NC(=O)CN(C)C(=O)[C@H](Cc2ccc(C)cc2)N(C)C(=O)[C@@H]2CCN2C(=O)[C@H](C)N(C)C1=O` [Compound 67] ([NMeL]I[NMeA][Aze][NMePhe(4-Me)][Sar][hPhe(3-Cl-4-CF3)][dA][Ac5c][NMeI][NMeD]-NMe2; lactam N-11) is 1.9-fold lower in IC50: 16 nM for the first, 8.3 nM for the second.

`CC[C@H](C)[C@@H]1NC(=O)[C@H](CC(C)C)N(C)C(=O)C[C@@H](C)N(C)C(=O)[C@H](C2CCCC2)N(C)C(=O)C2(CCC2)NC(=O)[C@@H]2CC(F)(F)CN2C(=O)[C@H](CCc2ccc(C(F)(F)F)c(Cl)c2)NC(=O)CN(C)C(=O)[C@H](Cc2ccc(C(F)(F)F)cc2)N(C)C(=O)CN(C)C(=O)CN(C)C1=O` [Compound 62] (cyclo([Ac4c][NMeGly(cPent)][NMedβ3hAla][NMeL]I[Sar][Sar][NMePhe(4-CF3)][Sar][hPhe(3-Cl-4-CF3)][Pro(4,4-F2)])) and `CC[C@H](C)[C@@H]1NC(=O)[C@H](CC(C)C)N(C)C(=O)C[C@@H](C(=O)N2CCCCC2)N(C)C(=O)[C@H](C2CCCCC2)N(C)C(=O)C2(CCCC2)NC(=O)[C@H](Cc2cccnc2)N(C)C(=O)[C@H](CCc2ccc(C(F)(F)F)c(Cl)c2)NC(=O)CN(C)C(=O)[C@H](CC2CCCCC2)N(C)C(=O)CN(C)C(=O)CN(C)C1=O` [Compound 63] ([NMeL]I[Sar][Sar][NMeCha][Sar][hPhe(3-Cl-4-CF3)][NMe3Pal][Ac5c][NMeChg][NMeD]-Piperidide; lactam N-11) are within 1.5-fold of each other in IC50: 3.8 nM for the first, 3.7 nM for the second.

From patent publication US12371454B2, “Cyclic peptide compound having Kras inhibitory action” (priority 2019, dated 2025)
